Data from PubChem BioAssay (NCI).
Where “and” joins values, the source holds several entries; their conditions need not be identical. Identical values can stand only once.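 Cells were grown in 96-well plates and exposed to each compound for 48 hours at five concentrations; endpoints were interpolated linearly between bracketing concentrations, or set to the highest concentration if not reached. GI50: concentration for 50% inhibition of growth. TGI marks complete inhibition of growth.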

Experiments:
Assay in all cases: NCI anticancer screen, dose series, 48 h
A498 renal = test system: A498 renal
HCT-116 colon = test system: HCT-116 colon
KM12 colon = test system: KM12 colon
MDA-MB-231 breast = test system: MDA-MB-231 breast
NCI-H226 lung = test system: NCI-H226 lung
NCI-H23 lung = test system: NCI-H23 lung
OVCAR-4 ovarian = test system: OVCAR-4 ovarian
SR leukemia = test system: SR leukemia
TK-10 renal = test system: TK-10 renal
UACC-62 melanoma = test system: UACC-62 melanoma

| SMILES | GI50 (A498 renal) | TGI (A498 renal) | GI50 (HCT-116 colon) | TGI (HCT-116 colon) [µM] | GI50 (KM12 colon) | TGI (KM12 colon) | GI50 (MDA-MB-231 breast) | TGI (MDA-MB-231 breast) [µM] | GI50 (NCI-H226 lung) | TGI (NCI-H226 lung) [µM] | GI50 (NCI-H23 lung) | TGI (NCI-H23 lung) [µM] | GI50 (OVCAR-4 ovarian) | TGI (OVCAR-4 ovarian) | GI50 (SR leukemia) | TGI (SR leukemia) | GI50 (TK-10 renal) | TGI (TK-10 renal) | GI50 (UACC-62 melanoma) | TGI (UACC-62 melanoma) |
| --- | --- | --- | --- | --- | --- | --- | --- | --- | --- | --- | --- | --- | --- | --- | --- | --- | --- | --- | --- | --- |
| COc1ccc(-c2ncnc3c2ncn3CC#CCCl)cc1 | 2.15 µM | 12.5 µM | 3.5 µM | 14.7 | 4.85 µM | 17.5 µM | 2.32 µM | 8.28 | 4.45 µM | 26.2 | 7.83 µM | 21.4 | 2.66 µM | 12.5 µM | 5.24 µM | > 100 µM | 7.29 µM | 24 µM | 3.32 µM | 15.2 µM |
| CN(C)c1ccc(/C=N/NC(N)=S)nc1 | 1.92 µM | 9.37 µM | 3.3 µM | > 100 | 3.49 µM | > 100 µM | 5.43 µM | > 100 | 3.54 µM | 52.7 | 2.39 µM | > 100 | 4.3 µM | > 100 µM | 2.73 µM | > 100 µM | 7.61 µM | > 100 µM | 3.39 µM | > 100 µM |
| Cc1cc2c(F)c(Oc3ncnc(Nc4ccc(N5C[C@@H](C)N[C@@H](C)C5)cc4)c3C#N)cc(F)c2[nH]1 | 0.0134 µM | 0.384 µM | 1.69 µM | 3.2 | 2.55 µM | 7.3 µM | 1.98 µM | 4.39 | 1.39 µM | 11.6 | 2.44 µM | 11.3 | 1.22 µM | 6.04 µM | 1.63 µM | 4.35 µM | 2.65 µM | 6.31 µM | 2.37 µM | 4.89 µM |
| CCCc1nn(C)c2c(=O)[nH]c(-c3cc(S(=O)(=O)N4CCN(C)CC4)ccc3OCC)nc12 | 25.6 µM | > 100 µM | > 100 µM | > 100 | > 100 µM | > 100 µM | > 100 µM | > 100 | > 100 µM | > 100 | > 100 µM | > 100 | > 100 µM | > 100 µM | > 100 µM | > 100 µM | 94.3 µM | > 100 µM | > 100 µM | > 100 µM |
| CC1SC(c2ccccc2Cl)N(NC(=O)C(O)c2ccccc2)C1=O (stereo unspecified) | 67.8 µM | > 100 µM | 96.1 µM | > 100 | > 100 µM | > 100 µM | 33.8 µM | > 100 | > 100 µM | > 100 | – | – | > 100 µM | > 100 µM | 40 µM | > 100 µM | 31 µM | > 100 µM | 45 µM | > 100 µM |
| Cc1c(CN2CCN(C(=O)[C@H](C)O)CC2)sc2c(N3CCOCC3)nc(-c3cnc(N)nc3)nc12 | 0.0542 µM and 0.0283 µM | 0.242 µM and 0.15 µM | 0.634 µM and 0.252 µM | > 40.1 | 0.755 µM and 0.393 µM | > 10 µM and 15.2 µM | 0.515 µM and 0.384 µM | > 40.6 | 0.345 µM and 0.159 µM | 6.15 | 0.389 µM and 0.181 µM | > 100 | 0.346 µM and 0.144 µM | 3.86 µM and 1.09 µM | 0.365 µM and 0.262 µM | > 10 µM and 3.88 µM | 0.191 µM and 0.131 µM | 3.51 µM and 0.825 µM | 0.1 µM and 0.11 µM | 0.917 µM and 0.467 µM |
| CC1=C(C#N)C23C(=O)N(c4ccccc4)C(=O)C2=C(O)C=CC3(O)N1Cc1ccc(Cl)cc1Cl (stereo unspecified) | 5.79 µM | 18.1 µM | 1.73 µM | 3.45 | 3.27 µM | 12 µM | 3.93 µM | 16.1 | 2.54 µM | 9.96 | 3.33 µM | 15.9 | 6.36 µM | 19.6 µM | 1.85 µM | 4.49 µM | 2.79 µM | 11.9 µM | 1.88 µM | 4.4 µM |
| CC(C)(C)OC(=O)C1C(=O)NC(=O)CC1CC(OCc1ccccc1)C(OCc1ccccc1)C(COCc1ccccc1)OCc1ccccc1 (stereo unspecified) | – | > 100 µM | 48.5 µM and 17 µM | > 100 | 39 µM and 5.26 µM | > 100 µM and 27.2 µM | 42.8 µM and 6.81 µM | > 100 | 33 µM and 14 µM | > 100 | 80.1 µM and 30 µM | > 100 | – | > 100 µM | 30.1 µM and 6.47 µM | > 100 µM | – | > 100 µM | – | – |
| Fc1cccc(COc2ccc(Nc3ncnc4onc(-c5ccccc5)c34)cc2)c1 | 0.24 µM | 3.18 µM | 0.0546 µM | > 37.4 | 0.173 µM | > 38.4 µM | 0.402 µM | 14.8 | 3.06 µM | > 100 | 0.583 µM | > 100 | 0.988 µM | > 100 µM | 0.0884 µM | > 100 µM | 1.21 µM | 36.1 µM | 0.496 µM | > 64.4 µM |
| NC(=O)c1cc(N2CC2)c([N+](=O)[O-])cc1[N+](=O)[O-] | – | 200 µM | > 200 µM | > 200 | > 200 µM | > 200 µM | – | > 200 | > 200 µM | > 200 | > 200 µM | > 200 | > 200 µM | > 200 µM | – | > 200 µM | – | > 200 µM | > 200 µM | > 200 µM |
| CN1C(=O)CCC(N2C(=O)c3cccc(NCCOCCOCCNC(=O)c4cc5c(o4)C(=O)c4ccccc4C5=O)c3C2=O)C1=O (stereo unspecified) | 1.71 µM | 3.2 µM | 2.17 µM | 6.21 | 3.35 µM | 12.6 µM | 2.64 µM | 8.77 | 1.67 µM | 3.78 | – | – | 1.43 µM | 2.8 µM | 1.99 µM | 7.5 µM | 3.5 µM | 7.55 µM | 1.04 µM | 2.35 µM |
| COc1nc(N)nc2c1ncn2C1CC(O)C(CO)O1 (stereo unspecified) | – | > 100 µM | – | > 100 | – | > 100 µM | – | > 100 | – | > 100 | – | > 100 | – | > 100 µM | – | > 100 µM | – | > 100 µM | – | > 100 µM |
| NC(=O)CC1OC(=O)Cc2cc3c(c(O)c21)C(=O)c1c(O)cccc1C3=O (stereo unspecified) | – | > 100 µM | – | > 100 | – | – | – | > 100 | – | > 100 | – | > 100 | – | > 100 µM | – | > 100 µM | – | > 100 µM | – | > 100 µM |
